Consider two compounds from the NIST ThermoML archive (doi:10.1016/j.jct.2015.02.007).

± gives the expanded uncertainty stated by the source.

The conditions of data set [1]: 100 kPa, Liquid; for mass density: Vibrating tube method.
Data set [2] in a line: xn = mol fraction of the nth substance listed. To be noted: 100 kPa, Liquid, x2 = 0; for mass density: Vibrating tube method.

Take `O` [water]: the mass density in data set [1] (278.15 K) was 999.965 ± 0.11 kg/m3; in data set [1] (283.15 K), 999.698 ± 0.11 kg/m3; in data set [1] (323.15 K), 988.027 ± 0.11 kg/m3; in data set [1] (328.15 K), 985.682 ± 0.11 kg/m3; in data set [1] (333.15 K) it was 983.186 ± 0.11 kg/m3. For the same compound, the speed of sound in data set [1] (318.15 K, Pulse-echo method) came out at 1536.7 ± 0.99 m/s.

Turning to `O` [water] + OCCOCCOCCOCCO, the mass density in data set [2] (278.15 K) is reported as 999.965 ± 0.11 kg/m3; in data set [2] (283.15 K) it was 999.698 ± 0.11 kg/m3; in data set [2] (323.15 K), 988.027 ± 0.11 kg/m3; in data set [2] (328.15 K), 985.682 ± 0.11 kg/m3; in data set [2] (333.15 K), 983.186 ± 0.11 kg/m3. For the same compound, the speed of sound in data set [2] (318.15 K, Pulse-echo method) came out at 1536.7 ± 0.99 m/s.

What is called mass density is the mass of a sample divided by its volume. A word on the speed of sound: it is how fast a sound wave travels through the sample.
